From patent US20230285280A1, “A DEVICE FOR USE IN THE DELIVERY OF AN ACTIVE AGENT” (ROYAL COLLEGE OF SURGEONS IN IRELAND, priority 2020, published 2023)

Assay: Active agent release from scaffold or scaffold+matrix in PBS at 37° C.
Assay type: physicochemical
Protocol: Release of nanoparticle-encapsulated active agent (either pirfenidone or prednisolone) from a matrix and release of active agent from a scaffold was assessed in the same manner. In short, one sample (of either a printed mesh (scaffold) or mesh+gel (scaffold and matrix)) per 1.5 mL eppendorf tube was incubated in 1 mL of PBS at 37° C. under agitation in a heated water bath. The release buffer was completely exchanged at selected time points of T=4 hrs, T=24 hrs, T=48 hrs, T=1 week, T=2 weeks, T=3 weeks, and T=4 weeks, T=6 weeks, T=8 weeks, T=10 weeks, T=12 weeks with samples stored at -20° C. until analysis. Release studies were undertaken for up to 28 days and released active agent concentrations were determined via extrapolation from a standard curve. Blank scaffolds (containing no active agent) were tested and readings were subtracted as an additional background control. Samples containing pirfenidone were analysed at 317 nm and samples containing prednisolone were analysed at 245 nm. Using either 3D drug printing or nanoparticle incorporation, it was possible to achieve a rapid release of active agent in the first 24 hours as well as a continuous release of drug over a 28 day period (FIG. 19).

SMILES | pirfenidone release when scaffold combined with the hyaluronic acid matrix (higher (50 kDa) molecular weight PCL scaffold, in the presence of the hydrated matrix, FIG. 9B) | pirfenidone release when scaffold combined with the hyaluronic acid matrix (lower molecular weight PCL scaffold, added to the matrix, FIG. 9A) | daily and cumulative prednisolone drug release (from 3D printed PCL scaffolds with no surrounding matrix, FIG. 10) | cumulative prednisolone release (from nanoparticles in a freeze-dried scaffold and hyaluronic acid matrix, FIG. 11)
Cc1ccc(=O)n(-c2ccccc2)c1 [pirfenidone, 5-Methyl-1-phenylpyridin-2-one] | negligible difference | release was slowed | – | –
C[C@]12C=CC(=O)C=C1CC[C@@H]1[C@@H]2[C@@H](O)C[C@@]2(C)[C@H]1CC[C@]2(O)C(=O)CO [prednisolone, 11β-11,17,21-Trihydroxypregna-1,4-diene-3,20-dione] | – | – | biphasic release up to 28 days | rapid and sustained release
